Assay results from ChEMBL document CHEMBL1143484, “Discovery of 1-amino-4-phenylcyclohexane-1-carboxylic acid and its influence on agonist selectivity between human melanocortin-4 and -1 receptors in linear pentapeptides” (Bioorg Med Chem Lett, 2005).
Non-standard residues stand in square brackets, D forms with d. Residues, ends and D or L forms follow the SMILES beside them. *: point of attachment. Butyryl = CCCC(=O)*

Key:
[1] = target: T1, Melanocyte-stimulating hormone receptor (Homo sapiens, UniProt Q01726); experiment: Concentration (50 uM) required for cAMP accumulation mediated by human Melanocortin 1 receptor in HEK293 cells; format: functional, cell-based
Target sequence in this assay (Q01726 whole entry, looked up): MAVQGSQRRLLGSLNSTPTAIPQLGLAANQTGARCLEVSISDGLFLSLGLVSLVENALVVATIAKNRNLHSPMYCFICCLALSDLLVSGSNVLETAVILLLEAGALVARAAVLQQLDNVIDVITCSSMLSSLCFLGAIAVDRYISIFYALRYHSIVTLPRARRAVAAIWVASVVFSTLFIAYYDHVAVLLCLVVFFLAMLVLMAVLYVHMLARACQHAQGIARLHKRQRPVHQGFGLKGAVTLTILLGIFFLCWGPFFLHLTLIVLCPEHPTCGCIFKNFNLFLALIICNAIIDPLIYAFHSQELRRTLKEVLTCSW

[2] = target: Melanocortin receptor 5 (Homo sapiens) (UniProt P33032); experiment: Concentration (50 uM) required for cAMP accumulation mediated by human Melanocortin 5 receptor in HEK293 cells; format: functional, cell-based
Chain of Melanocortin receptor 5 (Homo sapiens) (P33032 whole entry): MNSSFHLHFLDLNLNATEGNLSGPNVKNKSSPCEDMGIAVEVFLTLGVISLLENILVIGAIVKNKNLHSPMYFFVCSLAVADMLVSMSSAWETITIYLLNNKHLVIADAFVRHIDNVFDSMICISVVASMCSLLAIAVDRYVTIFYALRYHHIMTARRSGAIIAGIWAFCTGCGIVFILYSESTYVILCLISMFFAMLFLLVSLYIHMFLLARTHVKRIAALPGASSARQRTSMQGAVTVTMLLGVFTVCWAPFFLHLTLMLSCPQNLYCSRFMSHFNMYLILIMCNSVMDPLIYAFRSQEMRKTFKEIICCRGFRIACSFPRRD

[3] = target: Melanocortin receptor 3 (Homo sapiens) (UniProt P41968); experiment: Concentration (50 uM) required for cAMP accumulation mediated by human Melanocortin 3 receptor in HEK293 cells; format: functional, cell-based
Chain of Melanocortin receptor 3 (Homo sapiens) (P41968 whole entry): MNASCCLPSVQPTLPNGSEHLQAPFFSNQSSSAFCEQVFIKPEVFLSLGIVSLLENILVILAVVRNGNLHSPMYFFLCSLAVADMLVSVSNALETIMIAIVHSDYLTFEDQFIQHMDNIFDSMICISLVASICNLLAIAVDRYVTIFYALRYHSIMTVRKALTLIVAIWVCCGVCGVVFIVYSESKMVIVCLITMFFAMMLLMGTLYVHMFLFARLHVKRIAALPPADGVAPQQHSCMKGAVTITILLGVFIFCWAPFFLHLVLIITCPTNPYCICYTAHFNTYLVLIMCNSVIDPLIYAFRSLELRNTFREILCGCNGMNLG

Melanocortin receptor 4 [4] = target: T2, Melanocortin receptor 4 (Homo sapiens, UniProt P32245); experiment: Effective concentration for cAMP accumulation mediated by human Melanocortin 4 receptor in HEK293 cells; format: functional, cell-based
T2 sequence (P32245 whole entry): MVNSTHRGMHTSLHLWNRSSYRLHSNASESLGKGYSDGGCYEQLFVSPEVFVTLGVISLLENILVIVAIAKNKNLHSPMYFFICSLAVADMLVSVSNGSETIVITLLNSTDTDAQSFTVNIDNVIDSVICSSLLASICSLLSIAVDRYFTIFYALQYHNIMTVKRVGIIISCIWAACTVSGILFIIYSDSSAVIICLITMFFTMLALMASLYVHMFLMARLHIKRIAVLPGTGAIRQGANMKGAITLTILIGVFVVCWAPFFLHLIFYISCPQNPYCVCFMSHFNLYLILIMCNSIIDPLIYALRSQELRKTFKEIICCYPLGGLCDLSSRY

[5] = target: T1, Melanocyte-stimulating hormone receptor; experiment: Effective concentration required for cAMP accumulation mediated by human Melanocortin 1 receptor in HEK293 cells; format: functional, cell-based
Target sequence in this assay (Q01726 whole entry): as the sequence (Q01726 whole entry, looked up) above

Melanocortin receptor 4 [6] = target: T2, Melanocortin receptor 4; experiment: Binding affinity towards human Melanocortin 4 receptor using radiolabeled NDP-MSH displacement
[7] = target: T1, Melanocyte-stimulating hormone receptor; experiment: Binding affinity towards human Melanocortin 1 receptor using radiolabeled NDP-MSH displacement
Target sequence in this assay (Q01726 whole entry): as the sequence (Q01726 whole entry, looked up) above

Melanocortin receptor 4 [8] = target: T2, Melanocortin receptor 4; experiment: Concentration (50 uM) required for cAMP accumulation mediated by human Melanocortin 4 receptor in HEK293 cells; format: functional, cell-based

| SMILES | cAMP accumulation at 50 uM [1] [%] | EC50 (Melanocortin receptor 4 [4]) [µM] | EC50 [5] [µM] | further results |
| --- | --- | --- | --- | --- |
| CCCC(=O)N[C@@H](Cc1c[nH]cn1)C(=O)N[C@H](Cc1ccccc1)C(=O)N[C@@H](CCCN=C(N)N)C(=O)N[C@@H](Cc1c[nH]c2ccccc12)C(=O)NCC(N)=O (Butyryl-H[dF]RWG-NH2) |  |  |  | Accumulation [2]: 0%; Accumulation [3]: 0% |
| CCCCC(=O)N[C@]1(C(=O)N[C@H](Cc2ccccc2)C(=O)N[C@@H](CCCNC(=N)N)C(=O)N[C@@H](Cc2c[nH]c3ccccc23)C(N)=O)CC[C@H](c2ccccc2)CC1 |  | 0.13 | 1.3 |  |
| NC(=O)CNC(=O)[C@H](Cc1c[nH]c2ccccc12)NC(=O)[C@H](CCCN=C(N)N)NC(=O)[C@@H](Cc1ccccc1)NC(=O)[C@H]1CC[C@H](c2ccccc2)CC1 | 60 | 0.55 |  |  |
| CCCCC(=O)N[C@]1(C(=O)N[C@H](Cc2ccccc2)C(=O)N[C@@H](CCCNC(=N)N)C(=O)N[C@@H](Cc2c[nH]c3ccccc23)C(=O)NCC(N)=O)CC[C@H](c2ccccc2)CC1 |  | 0.002 |  | IC50 (Melanocortin receptor 4 [6]): 0.013 µM; IC50 [7]: 7.1 µM |
| CCCCC(=O)N[C@]1(C(=O)N[C@H](Cc2ccccc2)C(=O)N[C@@H](CCCNC(=N)N)C(=O)N[C@@H](Cc2c[nH]c3ccccc23)C(=O)NCC(N)=O)CC[C@H](c2ccc(OC(C)C)cc2)CC1 |  | 0.006 |  |  |
| CCCCC(=O)N[C@]1(C(=O)N[C@H](Cc2ccccc2)C(=O)N[C@@H](CCCNC(=N)N)C(=O)N[C@@H](Cc2c[nH]c3ccccc23)C(=O)NCC(N)=O)CC[C@H](c2cccc(OC)c2)CC1 |  | 0.002 | 0.69 |  |
| CCCCC(=O)N[C@]1(C(=O)N[C@H](Cc2ccccc2)C(=O)N[C@@H](CCCN=C(N)N)C(=O)N[C@@H](Cc2c[nH]c3ccccc23)C(=O)NCC(N)=O)CC[C@H](c2cc(CCC)cc(CCC)c2)CC1 |  |  | 0.21 | Accumulation (Melanocortin receptor 4 [8]): 60% |
| CCCCC(=O)N[C@@]1(C(=O)N[C@H](Cc2ccccc2)C(=O)N[C@@H](CCCN=C(N)N)C(=O)N[C@@H](Cc2c[nH]c3ccccc23)C(=O)NCC(N)=O)CCc2ccccc2C1 |  | 0.045 | 0.83 |  |
| CCCCC(=O)N[C@]1(C(=O)N[C@H](Cc2ccccc2)C(=O)N[C@@H](CCCNC(=N)N)C(=O)N[C@@H](Cc2c[nH]c3ccccc23)C(=O)NCC(N)=O)CC[C@H](c2ccc(OCC)cc2)CC1 |  | 0.013 |  | IC50 (Melanocortin receptor 4 [6]): 0.043 µM; IC50 [7]: 4.7 µM |

More lines, main results first:

| cAMP accumulation at 50 uM [1] [%] | EC50 (Melanocortin receptor 4 [4]) [µM] | EC50 [5] [µM] | SMILES | further results |
| --- | --- | --- | --- | --- |
| 25 |  |  | CCCCC(=O)N[C@]1(C(=O)N[C@H](Cc2ccccc2)C(=O)N[C@@H](CCCN=C(N)N)C(=O)N[C@@H](Cc2c[nH]c3ccccc23)C(=O)NCC(N)=O)CC[C@H](c2ccccc2)CC1 | Accumulation [2]: 36%; Accumulation [3]: 57% |
|  | 0.005 | 1.3 | CCCCC(=O)N[C@]1(C(=O)N[C@H](Cc2ccccc2)C(=O)N[C@@H](CCCNC(=N)N)C(=O)N[C@@H](Cc2c[nH]c3ccccc23)C(=O)NCC(N)=O)CC[C@H](c2ccc(O)cc2)CC1 |  |
| 0 | 0.009 |  | CCCCC(=O)N[C@]1(C(=O)NC(Cc2ccccc2)C(=O)NC(CCCN=C(N)N)C(=O)N[C@@H](Cc2c[nH]c3ccccc23)C(=O)NCC(N)=O)CC[C@H](c2ccc(OC)cc2)CC1 (single isomer, unassigned) |  |
| 0 |  |  | CCCCC(=O)N[C@]1(C(=O)N[C@H](Cc2ccccc2)C(=O)N[C@@H](CCCN=C(N)N)C(=O)N[C@@H](Cc2c[nH]c3ccccc23)C(=O)NCC(N)=O)CC[C@H](c2ccc(OCC)cc2)CC1 | Accumulation [2]: 46%; Accumulation [3]: 28% |
| 55 | 0.003 |  | CCCCC(=O)N[C@]1(C(=O)NC(Cc2ccccc2)C(=O)NC(CCCN=C(N)N)C(=O)N[C@@H](Cc2c[nH]c3ccccc23)C(=O)NCC(N)=O)CC[C@H](c2ccc(C)cc2)CC1 (single isomer, unassigned) |  |
| 45 |  |  | CCCCC(=O)N[C@]1(C(=O)N[C@H](Cc2ccccc2)C(=O)N[C@@H](CCCN=C(N)N)C(=O)N[C@@H](Cc2c[nH]c3ccccc23)C(=O)NCC(N)=O)CC[C@H](c2ccc(Cl)cc2)CC1 |  |
|  | 0.088 | 1.3 | CCCCC(=O)N[C@]1(C(=O)NC(Cc2ccccc2)C(=O)NC(CCCN=C(N)N)C(=O)N[C@@H](Cc2c[nH]c3ccccc23)C(=O)NCC(N)=O)CC[C@@H](c2ccccc2)CC1 (single isomer, unassigned) |  |
| 60 |  |  | CCCCC(=O)N[C@]1(C(=O)N[C@H](Cc2ccccc2)C(=O)N[C@@H](CCCN=C(N)N)C(=O)N[C@@H](Cc2c[nH]c3ccccc23)C(=O)NCC(N)=O)CC[C@H](c2ccc(OC(C)C)cc2)CC1 |  |
|  | 0.004 |  | CCCCC(=O)N[C@]1(C(=O)N[C@H](Cc2ccccc2)C(=O)N[C@@H](CCCNC(=N)N)C(=O)N[C@@H](Cc2c[nH]c3ccccc23)C(=O)NCC(N)=O)CC[C@H](c2ccc(Cl)cc2)CC1 |  |
